Columns and labels:
[1] = system: human plasma proteins; details: cited from earlier work
[2] = cited from earlier work
[3] = cited from earlier work; remark: listed apart in the source
[4] = Solubility by UV-VIS measurement (Example 1); format: physicochemical; details: room temperature, UV-VIS at 248 nm, filtered by 100 nm syringe filter
Protocol: The solubility of nanostructured Ezetimibe compared to the reference form of the active compound was determined in distilled water and 0.05% SDS solution by UV-VIS measurements (Thermo Genesys 10S spectrophotometer) at 248 nm wavelength and room temperature. The redispersed sample was filtered by 100 nm disposable syringe filter.

[5] = PAMPA permeability measurement (Example 5); format: in vitro ADME; details: redispersed in distilled water; receiver phosphate buffered saline with 1% sodium lauryl sulphate; UV at 248 nm
Protocol: Reference Ezetimibe and solid nanostructured Ezetimibe was redispersed in distilled water and permeability was measured across and artificial membrane composed of dodecane with 20% soy lecithin. The sample containing the reference compound was a suspension of crystals visible by the naked eye, while the nanostructured sample was an opalescent colloid solution. The receiver compartment was phosphate buffered saline with 1% sodium lauryl sulphate.

Row | solubility in 0.05% SDS solution ([4]; 0.05% SDS solution) | solubility in distilled water ([4]; distilled water) | PAMPA permeability [5] | Structure (SMILES) | bound to human plasma proteins [1] | mean peak plasma concentration (Cmax) ([2]; in vivo, po, 10 mg) | tmax ([2]; in vivo, po, 10 mg) | stability ([3]; ambient temperature) | solubility in ethanol, methanol and acetone (descriptive) ([3]; ethanol, methanol, acetone) | solubility in water (descriptive) ([3]; water) | deviation from dose proportionality ([2]; between 5 and 20 mg) | increase of Cmax with food ([2]; consumption of high-fat meals, ZETIA 10-mg tablets) | effect of concomitant food on extent of absorption ([2]; high-fat or non-fat meals, ZETIA 10-mg tablets) | bioavailability (estimated) ([2]; oral)
1 |  |  |  | O=C(O)[C@H]1O[C@@H](Oc2ccc([C@@H]3[C@@H](CC[C@H](O)c4ccc(F)cc4)C(=O)N3c3ccc(F)cc3)cc2)[C@H](O)[C@@H](O)[C@@H]1O [Ezetimibe-glucuronide] | > 90% | 45 to 71 ng/mL | 1 to 2 h |  |  |  |  |  |  | 
2 | under the detection limit | under the detection limit | under the detection limit | O=C1[C@H](CC[C@H](O)c2ccc(F)cc2)[C@@H](c2ccc(O)cc2)N1c1ccc(F)cc1 [Ezetimibe, 1-(4-fluorophenyl)-3(R)-[3-(4-fluorophenyl)-3(S)-hydroxypropyl]-4(S)-(4-hydroxyphenyl)-2-azetidinone] |  |  |  | stable at ambient temperature | freely to very soluble | practically insoluble | no substantial deviation from dose proportionality | 38% | no effect | 35-65%

From patent US20130210794A1, “NANOSTRUCTURED EZETIMIBE COMPOSITIONS, PROCESS FOR THE PREPARATION THEREOF AND PHARMACEUTICAL COMPOSITIONS CONTAINING THEM” (priority 2010, published 2013)
